Data as given in patent US9938264B2, “Proteolysis targeting chimera compounds and methods of preparing and using same” (YALE UNIVERSITY, priority 2015, dated 2018).

Tests used:
[1] = target: T1, c-ABL (Homo sapiens, UniProt P00519); experiment: c-ABL degradation in K562 cells by immunoblot; assay type: cell-based; conditions: for concentration from which degradation of c-ABL is observed: 24 hrs, immunoblot; for decrease (degradation) of c-ABL: at 1 μM PROTAC
T1 construct: endogenous in cells; host or cells: K562 (ATCC)
T1 sequence (P00519 whole entry): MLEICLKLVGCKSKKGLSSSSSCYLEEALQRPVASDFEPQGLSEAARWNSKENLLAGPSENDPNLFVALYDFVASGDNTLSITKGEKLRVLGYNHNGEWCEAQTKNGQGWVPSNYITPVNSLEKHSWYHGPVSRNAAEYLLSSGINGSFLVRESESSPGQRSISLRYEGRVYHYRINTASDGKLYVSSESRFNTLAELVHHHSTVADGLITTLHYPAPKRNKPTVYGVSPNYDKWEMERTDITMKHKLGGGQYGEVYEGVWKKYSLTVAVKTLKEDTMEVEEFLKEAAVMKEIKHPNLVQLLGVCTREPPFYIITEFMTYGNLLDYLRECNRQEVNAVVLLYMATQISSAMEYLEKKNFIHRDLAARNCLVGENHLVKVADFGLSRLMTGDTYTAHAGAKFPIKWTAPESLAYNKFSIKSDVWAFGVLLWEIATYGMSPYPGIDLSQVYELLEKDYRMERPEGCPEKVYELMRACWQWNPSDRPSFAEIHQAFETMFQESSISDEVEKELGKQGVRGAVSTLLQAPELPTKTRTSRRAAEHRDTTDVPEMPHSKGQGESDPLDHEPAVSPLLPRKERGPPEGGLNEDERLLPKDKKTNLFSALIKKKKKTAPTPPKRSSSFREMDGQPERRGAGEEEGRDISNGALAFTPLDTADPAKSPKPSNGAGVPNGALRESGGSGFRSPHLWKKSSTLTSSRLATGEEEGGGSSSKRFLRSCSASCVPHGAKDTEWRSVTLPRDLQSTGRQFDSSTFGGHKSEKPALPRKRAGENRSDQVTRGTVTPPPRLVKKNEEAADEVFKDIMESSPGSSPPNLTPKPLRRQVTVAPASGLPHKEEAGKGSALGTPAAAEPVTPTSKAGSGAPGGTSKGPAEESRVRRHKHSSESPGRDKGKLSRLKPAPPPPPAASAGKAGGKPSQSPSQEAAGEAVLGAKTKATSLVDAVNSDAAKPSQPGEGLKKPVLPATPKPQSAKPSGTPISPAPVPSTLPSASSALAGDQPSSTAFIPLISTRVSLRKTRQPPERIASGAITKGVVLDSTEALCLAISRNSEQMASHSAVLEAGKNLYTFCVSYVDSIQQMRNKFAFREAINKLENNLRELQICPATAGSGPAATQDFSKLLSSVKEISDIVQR
Experimental: (§1) K562 cells were obtained from ATCC and were grown at 37° C., 5% CO2 in Iscove's Modified Dulbecco's Media (IMDM) supplemented with 10% FBS, 100 U/mL penicillin and 100 μg/mL streptomycin. HEK293 and SK-BR-3 cells were obtained from ATCC and were grown at 37° C., 5% CO2 in Dulbecco's Modified Eagle's Media (DMEM) supplemented with 10% FBS, 100 U/mL penicillin and 100 μg/mL streptomycin.
(§2) K562 cells (1-1.5×10^6) were treated for 24 hours with the indicated compounds solubilized in DMSO. The cells were collected at 300 g for 3 min. […] The total protein concentrations were determined by Pierce BCA Protein Assay and […] of protein was loaded onto 10% Tris-Glycine gels. After standard gel electrophoresis, the separated proteins were transferred to nitrocellulose by wet transfer. The immunoblots were then processed by standard procedures and incubated with the respective antibodies. Band intensities were quantified by Bio-Rad's Image Lab software.

[2] = target: T2, non-phosphorylated c-ABL kinase domain (Homo sapiens, UniProt P00519); experiment: KinomeScan in vitro binding affinity (Kd), non-phosphorylated c-ABL kinase domain; conditions: Table 2, read-out: ABL (non-phosphorylated)
T2 construct: phosphorylated and non-phosphorylated c-ABL kinase domain; purchased DiscoverRx Corporation (KinomeScan platform)
T2 sequence (P00519 242-493 limits assumed): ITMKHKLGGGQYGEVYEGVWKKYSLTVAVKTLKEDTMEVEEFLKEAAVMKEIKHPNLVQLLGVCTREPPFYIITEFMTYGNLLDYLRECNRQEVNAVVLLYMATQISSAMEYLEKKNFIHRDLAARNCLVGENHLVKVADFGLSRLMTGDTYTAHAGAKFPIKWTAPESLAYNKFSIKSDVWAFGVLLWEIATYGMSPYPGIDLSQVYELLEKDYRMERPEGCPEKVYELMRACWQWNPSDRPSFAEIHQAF
Experimental: (§3) PROTAC in vitro binding affinities (Kd) to phosphorylated and non-phosphorylated c-ABL kinase domain were determined using the KinomeScan platform (DiscoverRx Corporation). The compounds were solubilized in DMSO and sent to DiscoverRx Corporation as a 10 μM stock solution.

[3] = target: T3, BCR-ABL (Homo sapiens, UniProt P00519+P11274); experiment: BCR-ABL degradation in K562 cells by immunoblot; assay type: cell-based
T3 construct: endogenous in cells; host or cells: K562 (ATCC)
T3 sequence (P11274+P00519 fused, change not shown): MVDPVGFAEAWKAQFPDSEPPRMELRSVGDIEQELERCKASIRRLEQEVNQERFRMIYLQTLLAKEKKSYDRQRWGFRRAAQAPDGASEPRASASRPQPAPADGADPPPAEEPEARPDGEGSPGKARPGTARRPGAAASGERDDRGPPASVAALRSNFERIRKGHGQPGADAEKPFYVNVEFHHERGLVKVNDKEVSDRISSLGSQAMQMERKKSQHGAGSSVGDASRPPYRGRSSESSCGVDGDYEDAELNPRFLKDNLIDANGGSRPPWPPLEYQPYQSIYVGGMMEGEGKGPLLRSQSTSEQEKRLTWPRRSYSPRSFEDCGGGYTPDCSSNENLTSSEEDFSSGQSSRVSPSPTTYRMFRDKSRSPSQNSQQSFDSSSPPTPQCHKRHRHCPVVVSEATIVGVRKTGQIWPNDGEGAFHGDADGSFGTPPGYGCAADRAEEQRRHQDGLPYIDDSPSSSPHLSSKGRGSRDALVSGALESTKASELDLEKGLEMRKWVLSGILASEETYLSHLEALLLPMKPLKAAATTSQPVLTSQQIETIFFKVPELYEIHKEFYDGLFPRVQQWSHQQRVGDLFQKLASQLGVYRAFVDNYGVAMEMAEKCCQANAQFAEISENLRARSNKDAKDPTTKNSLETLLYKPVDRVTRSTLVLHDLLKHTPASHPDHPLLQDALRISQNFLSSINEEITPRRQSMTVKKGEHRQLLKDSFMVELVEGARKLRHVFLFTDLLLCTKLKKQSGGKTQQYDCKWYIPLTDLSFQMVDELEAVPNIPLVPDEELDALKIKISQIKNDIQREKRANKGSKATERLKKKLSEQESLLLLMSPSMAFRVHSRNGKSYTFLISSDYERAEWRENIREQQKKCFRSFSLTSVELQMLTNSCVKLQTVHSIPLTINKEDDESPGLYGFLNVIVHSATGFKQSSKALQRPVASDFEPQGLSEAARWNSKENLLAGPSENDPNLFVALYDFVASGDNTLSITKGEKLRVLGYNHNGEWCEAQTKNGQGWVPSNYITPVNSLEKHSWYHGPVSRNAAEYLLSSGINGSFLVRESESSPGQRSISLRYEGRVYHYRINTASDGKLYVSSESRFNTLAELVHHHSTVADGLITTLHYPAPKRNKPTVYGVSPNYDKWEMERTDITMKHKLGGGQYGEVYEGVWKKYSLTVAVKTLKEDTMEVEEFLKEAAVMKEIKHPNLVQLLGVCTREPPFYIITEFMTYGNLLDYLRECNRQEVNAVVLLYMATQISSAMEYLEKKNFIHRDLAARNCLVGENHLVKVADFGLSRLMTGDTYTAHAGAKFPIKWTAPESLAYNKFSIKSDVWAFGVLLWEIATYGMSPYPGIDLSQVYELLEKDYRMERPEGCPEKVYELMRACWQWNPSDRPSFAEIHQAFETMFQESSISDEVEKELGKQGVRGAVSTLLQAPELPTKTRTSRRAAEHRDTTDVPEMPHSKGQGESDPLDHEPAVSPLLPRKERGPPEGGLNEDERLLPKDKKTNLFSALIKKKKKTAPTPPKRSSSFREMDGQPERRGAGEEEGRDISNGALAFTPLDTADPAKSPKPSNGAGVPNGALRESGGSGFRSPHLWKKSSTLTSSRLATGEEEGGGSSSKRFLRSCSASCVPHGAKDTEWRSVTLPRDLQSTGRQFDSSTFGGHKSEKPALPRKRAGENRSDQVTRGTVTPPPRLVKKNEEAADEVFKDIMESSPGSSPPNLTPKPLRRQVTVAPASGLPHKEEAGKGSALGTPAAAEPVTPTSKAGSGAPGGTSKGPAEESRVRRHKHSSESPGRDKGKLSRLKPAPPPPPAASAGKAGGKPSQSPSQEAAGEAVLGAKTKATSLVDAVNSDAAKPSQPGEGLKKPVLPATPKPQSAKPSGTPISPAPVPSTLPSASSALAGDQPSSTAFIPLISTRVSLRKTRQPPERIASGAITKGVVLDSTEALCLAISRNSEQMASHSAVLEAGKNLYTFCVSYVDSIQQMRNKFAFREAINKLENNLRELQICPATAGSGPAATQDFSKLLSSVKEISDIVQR
T3 sequence (Q96SW2 whole entry, change not shown, further chain): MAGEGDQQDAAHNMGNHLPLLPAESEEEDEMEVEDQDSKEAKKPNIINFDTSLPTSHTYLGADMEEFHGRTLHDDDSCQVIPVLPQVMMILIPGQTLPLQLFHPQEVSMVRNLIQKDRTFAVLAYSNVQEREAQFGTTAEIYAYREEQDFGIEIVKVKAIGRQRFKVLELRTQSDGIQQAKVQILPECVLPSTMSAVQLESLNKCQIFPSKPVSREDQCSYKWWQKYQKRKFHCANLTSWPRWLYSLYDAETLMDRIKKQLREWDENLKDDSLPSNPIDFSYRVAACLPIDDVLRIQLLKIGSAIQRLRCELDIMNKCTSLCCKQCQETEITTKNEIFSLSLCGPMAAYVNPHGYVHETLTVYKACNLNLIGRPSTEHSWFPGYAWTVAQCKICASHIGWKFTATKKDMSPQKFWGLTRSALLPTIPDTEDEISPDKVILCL
T3 sequence (Q16531 whole entry partner): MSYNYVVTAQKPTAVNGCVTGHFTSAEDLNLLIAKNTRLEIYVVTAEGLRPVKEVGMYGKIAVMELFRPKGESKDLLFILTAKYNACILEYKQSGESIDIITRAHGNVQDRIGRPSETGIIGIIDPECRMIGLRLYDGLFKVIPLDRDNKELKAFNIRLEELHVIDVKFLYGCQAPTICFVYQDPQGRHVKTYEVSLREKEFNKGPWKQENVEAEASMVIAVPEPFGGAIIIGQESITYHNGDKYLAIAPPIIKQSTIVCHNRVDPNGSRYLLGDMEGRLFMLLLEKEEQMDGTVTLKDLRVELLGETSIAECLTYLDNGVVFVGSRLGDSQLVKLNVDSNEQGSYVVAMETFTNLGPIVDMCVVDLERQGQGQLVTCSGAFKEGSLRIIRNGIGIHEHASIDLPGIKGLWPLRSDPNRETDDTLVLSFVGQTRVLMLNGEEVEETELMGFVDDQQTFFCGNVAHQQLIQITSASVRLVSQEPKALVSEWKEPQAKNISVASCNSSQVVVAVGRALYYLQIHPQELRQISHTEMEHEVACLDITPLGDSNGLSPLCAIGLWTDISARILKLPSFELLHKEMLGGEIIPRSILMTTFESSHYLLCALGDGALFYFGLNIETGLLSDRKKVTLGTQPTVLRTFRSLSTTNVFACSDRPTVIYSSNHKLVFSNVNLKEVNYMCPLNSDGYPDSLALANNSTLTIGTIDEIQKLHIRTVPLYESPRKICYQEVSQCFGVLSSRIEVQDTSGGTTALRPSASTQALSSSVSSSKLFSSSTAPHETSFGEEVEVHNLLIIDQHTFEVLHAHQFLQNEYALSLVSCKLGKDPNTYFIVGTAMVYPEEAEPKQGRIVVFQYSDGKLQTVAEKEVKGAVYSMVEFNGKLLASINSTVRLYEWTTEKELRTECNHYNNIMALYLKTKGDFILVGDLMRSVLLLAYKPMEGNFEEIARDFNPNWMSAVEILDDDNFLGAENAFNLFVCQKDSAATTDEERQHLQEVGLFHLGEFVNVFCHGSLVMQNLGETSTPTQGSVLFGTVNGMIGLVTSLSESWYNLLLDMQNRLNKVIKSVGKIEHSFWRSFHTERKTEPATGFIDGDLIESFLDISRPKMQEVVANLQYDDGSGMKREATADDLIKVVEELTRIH
Experimental: as §1, §2

[4] = target: T4, phosphorylated c-ABL kinase domain (Homo sapiens, UniProt P00519); experiment: KinomeScan in vitro binding affinity (Kd), phosphorylated c-ABL kinase domain; conditions: Table 2, read-out: ABL (phosphorylated)
T4 construct: phosphorylated and non-phosphorylated c-ABL kinase domain; purchased DiscoverRx Corporation (KinomeScan platform)
T4 sequence (P00519 242-493 limits assumed): T2 sequence (P00519 242-493 limits assumed)
Experimental: as §3

Row | concentration from which degradation of c-ABL is observed [1] [µM] | Kd [2] [pM] | decrease (degradation) of c-ABL [1] [%] | Kd [4] [pM] | Molecule | also measured
1 | ≥ 1 |  |  |  | Cc1nc(Nc2ncc(C(=O)Nc3c(C)cccc3Cl)s2)cc(N2CCN(CCCCCCOCCOCCOCCOCCOCCOCC(=O)N[C@H](C(=O)N3C[C@H](O)C[C@H]3C(=O)NCc3ccc(-c4scnc4C)cc3)C(C)(C)C)CC2)n1 [DAS-6-(2-)5-2-VHL, N-(2-chloro-6-methylphenyl)-2-((6-(4-((S)-3-((2S,4R)-4-hydroxy-2-((4-(4-methylthiazol-5-yl)benzyl)carbamoyl)pyrrolidine-1-carbonyl)-2,2-dimethyl-5-oxo-7,10,13,16,19,22-hexaoxa-4-azaoctacosan-28-yl)piperazin-1-yl)-2-methylpyrimidin-4-yl)amino)thiazole-5-carboxamide] | 
2 | ≥ 1 |  |  |  | Cc1nc(Nc2ncc(C(=O)Nc3c(C)cccc3Cl)s2)cc(N2CCN(CCCCCCOCCOCC(=O)N[C@H](C(=O)N3C[C@H](O)C[C@H]3C(=O)NCc3ccc(-c4scnc4C)cc3)C(C)(C)C)CC2)n1 [DAS-6-2-2-VHL, N-(2-chloro-6-methylphenyl)-2-((6-(4-(6-(2-(2-(((S)-1-((2S,4R)-4-hydroxy-2-((4-(4-methylthiazol-5-yl)benzyl)carbamoyl)pyrrolidin-1-yl)-3,3-dimethyl-1-oxobutan-2-yl)amino)-2-oxoethoxy)ethoxy)hexyl)piperazin-1-yl)-2-methylpyrimidin-4-yl)amino)thiazole-5-carboxamide] | 
3 |  | 600 | > 85 |  | Cc1nc(Nc2ncc(C(=O)Nc3c(C)cccc3Cl)s2)cc(N2CCN(CCCCCCOCCOCCOCCCCCC(=O)Nc3cccc4c3C(=O)N(C3CCC(=O)NC3=O)C4=O)CC2)n1 (centres unmarked) [DAS-6-2-2-6-CRBN, N-(2-chloro-6-methylphenyl)-2-((6-(4-(6-(2-(2-((6-((2-(2,6-dioxopiperidin-3-yl)-1,3-dioxoisoindolin-4-yl)amino)-6-oxohexyl)oxy)ethoxy)ethoxy)hexyl)piperazin-1-yl)-2-methylpyrimidin-4-yl)amino)thiazole-5-carboxamide] | BCR-ABL degradation ([3]; at 1 μM PROTAC): > 60%
4 | ≥ 1 | 2600 |  | 1300 | Cc1nc(Nc2ncc(C(=O)Nc3c(C)cccc3Cl)s2)cc(N2CCN(CCCCCCOCCCCCOCCCCCC(=O)N[C@H](C(=O)N3C[C@H](O)C[C@H]3C(=O)NCc3ccc(-c4scnc4C)cc3)C(C)(C)C)CC2)n1 [DAS-6-5-6-VHL, N-(2-chloro-6-methylphenyl)-2-((6-(4-(6-((5-((6-(((S)-1-((2S,4R)-4-hydroxy-2-((4-(4-methylthiazol-5-yl)benzyl)carbamoyl)pyrrolidin-1-yl)-3,3-dimethyl-1-oxobutan-2-yl)amino)-6-oxohexyl)oxy)pentyl)oxy)hexyl)piperazin-1-yl)-2-methylpyrimidin-4-yl)amino)thiazole-5-carboxamide] | 
5 | ≥ 1 | 920 | > 65 | 470 | Cc1nc(Nc2ncc(C(=O)Nc3c(C)cccc3Cl)s2)cc(N2CCN(CCCCCCOCCOCCOCCCCCC(=O)N[C@H](C(=O)N3C[C@H](O)C[C@H]3C(=O)NCc3ccc(-c4scnc4C)cc3)C(C)(C)C)CC2)n1 [DAS-6-2-2-6-VHL, N-(2-chloro-6-methylphenyl)-2-((6-(4-((S)-3-((2S,4R)-4-hydroxy-2-((4-(4-methylthiazol-5-yl)benzyl)carbamoyl)pyrrolidine-1-carbonyl)-2,2-dimethyl-5-oxo-11,14,17-trioxa-4-azatricosan-23-yl)piperazin-1-yl)-2-methylpyrimidin-4-yl)amino)thiazole-5-carboxamide] | 
6 |  |  |  |  | 6-(2-(2-((6-(4-(3-((3-cyano-4-((2,4-dichloro-5-methoxyphenyl)amino)-6-methoxyquinolin-7-yl)oxy)propyl)piperazin-1-yl)hexyl)oxy)ethoxy)ethoxy)-N-(2-(2,6-dioxopiperidin-3-yl)-1,3-dioxoisoindolin-4-yl)hexanamide [BOS-6-2-2-6-CRBN] | c-ABL degradation ([1]; at 2.5 μM): > 90%; BCR-ABL degradation ([3]; at 2.5 μM): > 80%
